Experimental data from patent US4517180A, “Peptides, process for preparing the same and psychodepressant compositions containing the same” (Amano Pharmaceutical Co., Ltd, priority 1982, dated 1985).
Where a SMILES comes first, the peptide text is derived from it.

Key:
Format in all cases: in vivo
[1] = system: Male ddy mice; test: Effect on hyperlocomotion induced by thyrotropin releasing hormone (TRH); details: for Activity counts (frequency per 60 min): Mean ± S.E.: 30 min before TRH 5 mg/kg i.p., control 1215 ± 114; for Effect on hyperlocomotion induced by TRH (in words): mice, s.c.
Procedure: Effect on hyperlocomotion induced by thyrotropin releasing hormone (TRH)
Male ddy mice (weighing 18 to 24.5 g) were used. The mice were placed into a transparent acrylic resin cage (26×37×11 cm) installed on Animex meter. Before experiment, the mice were allowed to habituate for 2 hours in the cage to fully lower the activity of the mice. After the completion of habituation, peptide A, peptide B or a diluent (physiological saline containing 1 mg/ml of sodium hydrogencarbonate) serving as a control was subcutaneously given to the mice. Thirty minutes thereafter, 5 mg/kg of TRH was intraperitoneally given to the animals. The activity counts during the period of 60 minutes following the administration of TRH was measured. Student's t-test was resorted to for statistical treatment.

[2] = system: Male ddy mice; test: Effect on climbing behavior induced by apomorphine (Pharmacological Test 2); design: key to Average: Mean ± S.E. (total of 7 scores), climbing behavior: sum of 7 scores; 0 = all four legs on floor, 2 = ≥3 legs on rods; details: for Average: Mean ± S.E. (total of 7 scores), climbing behavior: 30 min before apomorphine 0.75 mg/kg s.c., control 9.8 ± 0.7; for Effect on apomorphine-induced climbing behavior (in words): mice, s.c.
Procedure: (§1) Effect on climbing behavior induced by apomorphine
Male ddy mice (weighing 20 to 30 g) were used, with 10 mice in each group. Each mouse was placed into a cylindrical cage, 12 cm in diameter and 14 cm in height, made up of vertical rods of 2 mm in diameter spaced apart at a distance of 10 mm in a circular arrangement. The mouse was allowed to stand therein for 2 hours. Peptide A, peptide B, CCK-8 or, as a control, the above-mentioned diluent was subcutaneously given to the animal, and 30 minutes later, 0.75 mg/kg of apomorphine was subcutaneously given. […] The test was carried out in soundproof compartments.
(§2) 0: All the four legs are on the floor.
(§3) 2: At least three legs are on rods.
Student's t-test was resorted to for statistical treatment.

[3] = system: male Wister rats; test: Effect on metabolism of amine in the brain; details: 1 mg/kg s.c., 1 hour after administration
Procedure: Effect on metabolism of amine in the brain
Unfasted male Wister rats (weighing 180 to 220 g) were used. Peptide A or peptide B was subcutaneously given to the animal at a dose of 1 mg/kg, the head was irradiated with microwave 1 hour thereafter, and amine metabolite was extracted from the brain. First, removed tissues were homogenized with 1M formic acid and centrifuged at 20,000×g for 20 minutes, and the supernatant (1 ml) was shaken with 5 ml of ethyl acetate. The 3,4-dihydroxyphenylacetic acid (DOPAC), homovanillic acid (HVA) and 5-hydroxyindoleacetic acid (5-HIAA) in the ethyl acetate layer were analyzed by high-performance liquid chromatography under the following conditions. Chemcosorb, 5-ODS, 20 cm×4.6 mm I.D. was used for a separating column, and a mobile phase (0.1M KH2 PO4 (pH 5.0)-5 mM EDTA-2Na-5% acetonitrile) was passed through the colunn at a flow rate of 1 ml/min. The electrochemical detector was set to an oxidation potential of +0.8 V.

[4] = system: male Wister rats; test: Effect on yawning behavior induced by apomorphine; details: for Number of yawns (average): 30 min before apomorphine 0.03 mg/kg s.c., counted 30 min, control 4.5; for Effect on yawning behavior induced by apomorphine (in words): rats, s.c.
Procedure: Effect on yawning behavior
Male Wister rats (weighing 200 to 300 g) were used, with 10 rats in each group. The rat was placed into a plastics cage (17×24×12 cm) with a floor mat and was then habituated for 30 minutes. Peptide A, peptide B, CCK-8 or the above-mentioned diluent serving as a control was subcutaneously given to the animal. Thirty minutes thereafter, 0.03 mg/kg of apomorphine was subcutaneously given to the animal. The number of yawns induced by apomorphine was counted during a period of 30 minutes following administration of apomorphine. The test was conducted in a soundproof compartment for each animal. Wilcoxon rank-sum test was resorted to for statistical treatment.

[5] = system: male Wister rats; test: Effect on the fixed ratio (FR20) responding in rats; details: s.c., 15 min before 20 min session, dose giving count 50 with control as 100
Procedure: Effect on the fixed ratio responding in rats
The test was conducted according to the method described in Ahlenius S. and Engel J., Eur. J. Pharm., Vol. 15, 187-192 (1971).
Male Wister rats (weighing 240 to 320 g) were placed into Skinner box (product of Bil-Medika Co., Ltd., Japan, adapted to give a feed when a lever within the box is pressed) and made to learn how to take the food. In this test, one feed was given to the rats when the lever was pressed 20 times, i.e., fixed ratio (FR) 20. The rats showing stable FR20 response were divided into groups each including four rats.
Physiological saline (containing 1 mM of sodium hydrogencarbonate) containing a specified amount of a test compound was subcutaneously given to the rats of one group in a volume of 0.1 ml/100 g. (Physiological saline containing the above-mentioned amount of sodium hydrogencarbonate only was given to the control group). Fifteen minutes after the administration, the test animals were placed in the Skinner box, and the number of times the animals took the feed for 20 minutes was counted. The dose at which the count gained by the group of animals was 50, namely, ED50 value, was determined, with the count gained by the control group calculated as 100. The same procedure as above was repeated with use of the other test compounds.

[6] = system: Male ICR mice; test: Inhibitory effect on hyperlocomotion induced by administration of methylphenidate; details: for Inhibitory effect on methylphenidate-induced hyperlocomotion (in words): s.c.; for ED50, inhibition of methylphenidate-induced hyperlocomotion: s.c. with methylphenidate 10 mg/kg s.c., measured 1 hour after, 50 with control as 100
Procedure: Inhibitory effect on hyperlocomotion induced by administration of methylphenidate
Male ICR mice (weighing 24 to 30 g) were divided into groups, each including 10 mice. To one group of mice were subcutaneously given 10 mg/kg of methylphenidate and 0.1 ml/10 g of a saline solution of a specified amount of a test compound and 1 mM of sodium hydrogencarbonate. One hour after the administration, the test animals were checked for hyperlocomotion, which was measured with use of a device for measuring locomotion of small animals (wherein the motion of an animal shifts the center of graavity of the device to actuate a microswitch for the measurement of the amount of motion, see Folia Pharmacologica Japonica, 74, 629-639 (1978). For a control group, the same procedure as above was repeated except that the saline solution given was free from any test compound. The concentration of the test compound at which the result achieved by the group of animals was 50, namely, ED50 value, was determined, with the measurement obtained by the control group calculated as 100. The other compounds were tested in the same manner as above.

[7] = system: Male ddy mice; test: Effect on climbing behavior induced by apomorphine (Pharmacological Test 7); design: key: sum of 7 scores; each 0 = four legs on floor, 2 = ≥3 legs on rods; details: control 9.8 ± 0.7
Procedure: as §1
Male ddy mice (weighing 20 to 30 g) were used, with 10 mice in each group. Each mouse was placed into a cylindrical cage, 12 cm in diameter and 14 cm in height, made up of vertical rods of 2 mm in diameter spaced apart at a distance of 10 mm in a circular arrangement. The mouse was allowed to stand therein for 2 hours. Physiological saline containing a specified amount of a test compound (and 1 mM of sodium hydrogencarbonate) was subcutaneously given to one group of mice in a volume of 1 ml/10 g. (The same dose of saline only was given to a control group). […] The test was carried out in soundproof compartments.
as §2, §3
The other compounds were tested in the same manner as above. The test was carried out in soundproof compartments. Student's t-test was resorted to for statistical treatment.

Structure (SMILES) | Activity counts (frequency per 60 min): Mean ± S.E. ([1]; 0.1 mg/kg s.c.) | Activity counts (frequency per 60 min): Mean ± S.E. ([1]; 0.3 mg/kg s.c.) | Effect on hyperlocomotion induced by TRH (in words) [1] | Average: Mean ± S.E. (total of 7 scores), climbing behavior ([2]; 0.01 mg/kg s.c.) | Average: Mean ± S.E. (total of 7 scores), climbing behavior ([2]; 0.1 mg/kg s.c.) | Average: Mean ± S.E. (total of 7 scores), climbing behavior ([2]; 1 mg/kg s.c.) | Effect on apomorphine-induced climbing behavior (in words) [2] | Increase of DOPAC content in hypothalamus [3] | Influence on content of metabolite (DOPAC, HVA, 5-HIAA) in frontal cortex, limbic forebrain and striatum [3] | Number of yawns (average) ([4]; 1 mg/kg s.c.) | Effect on yawning behavior induced by apomorphine (in words) [4] | ED50, inhibition of FR20 responding [5] | Inhibitory effect on methylphenidate-induced hyperlocomotion (in words) [6] | ED50, inhibition of methylphenidate-induced hyperlocomotion [6] | Average: Mean ± S.E. (total of 7 scores), climbing behavior ([7]; 0.1 mg/kg s.c.) | Average: Mean ± S.E. (total of 7 scores), climbing behavior ([7]; 0.3 mg/kg s.c.) | Average: Mean ± S.E. (total of 7 scores), climbing behavior ([7]; 1.0 mg/kg s.c.) | other results
CSCC[C@H](NC(=O)[C@H](Cc1ccc(OS(=O)(=O)O)cc1)NC(=O)[C@H](CC(=O)O)NC(=O)[C@@H]1CCC(=O)N1)C(=O)NCC(=O)N[C@@H](Cc1c[nH]c2ccccc12)C(=O)N[C@@H](CCSC)C(=O)N[C@@H](CC(=O)O)C(=O)N[C@@H](Cc1ccccc1)C(N)=O [Peptide B, pGlu--Asp--Tyr(SO3 H)--Met--Gly--Trp--Met--Asp--Phe--NH2] | 601 ± 78 frequency per 60 min | 626 ± 143 frequency per 60 min | inhibit the hyperlocomotion induced by TRH | 8.7 ± 0.8 | 5.4 ± 0.8 | 4.7 ± 1.1 | inhibit the climbing behavior | about 60% | Neither of peptide A and peptide B was found to influence | 1.0 | inhibit the yawning behavior induced by apomorphine |  |  |  |  |  |  | Activity counts (frequency per 60 min): Mean ± S.E. ([1]; 0.03 mg/kg s.c.): 1009 ± 165 frequency per 60 min
CSCC[C@H](NC(=O)[C@H](Cc1ccc(OS(=O)(=O)O)cc1)NC(=O)CCC(=O)O)C(=O)NCC(=O)N[C@@H](Cc1c[nH]c2ccccc12)C(=O)N[C@@H](CCSC)C(=O)N[C@@H](CC(=O)O)C(=O)N[C@@H](Cc1ccccc1)C(N)=O [Peptide D, Suc--Tyr(SO3 H)--Met--Gly--Trp--Met--Asp--Phe--NH2] (HELM PEPTIDE1{[O=C(O)CCC(=O)[*:2]].[O=C([C@H](Cc1ccc(OS(=O)(=O)O)cc1)N[*:1])[*:2]].M.G.W.M.D.F.[am]}$$$$V2.0) |  |  |  |  |  |  |  |  |  |  |  | 0.0102 mg/kg | especially high inhibitory effect | 0.0345 mg/kg | 7.0 ± 0.3 | 5.9 ± 0.9 | 4.5 ± 1.0 | 
CSCC[C@H](NC(=O)[C@H](Cc1ccc(OS(=O)(=O)O)cc1)NC(=O)[C@H](CC(=O)O)NC(=O)CCCC(=O)O)C(=O)NCC(=O)N[C@@H](Cc1c[nH]c2ccccc12)C(=O)N[C@@H](CCSC)C(=O)N[C@@H](CC(=O)O)C(=O)N[C@@H](Cc1ccccc1)C(N)=O [Peptide A, Glt--Asp--Tyr(SO 3 H)--Met--Gly--Trp--Met--Asp--Phe--NH2] | 936 ± 115 frequency per 60 min | 613 ± 114 frequency per 60 min | inhibit the hyperlocomotion induced by TRH | 8.6 ± 0.6 | 5.3 ± 0.5 | 4.5 ± 1.0 | inhibit the climbing behavior | about 60% | Neither of peptide A and peptide B was found to influence | 0 | inhibit the yawning behavior induced by apomorphine |  |  |  |  |  |  | Activity counts (frequency per 60 min): Mean ± S.E. ([1]; 1 mg/kg s.c.): 148 ± 34 frequency per 60 min; Average: Mean ± S.E. (total of 7 scores), climbing behavior ([2]; 0.03 mg/kg s.c.): 7.9 ± 0.6; Average: Mean ± S.E. (total of 7 scores), climbing behavior ([2]; 0.3 mg/kg s.c.): 5.1 ± 0.7; Number of yawns (average) ([4]; 0.3 mg/kg s.c.): 1.5
CSCC[C@H](NC(=O)[C@H](Cc1ccc(OS(=O)(=O)O)cc1)NC(=O)CCCC(=O)O)C(=O)NCC(=O)N[C@@H](Cc1c[nH]c2ccccc12)C(=O)N[C@@H](CCSC)C(=O)N[C@@H](CC(=O)O)C(=O)N[C@@H](Cc1ccccc1)C(N)=O [Peptide E, Glt--Tyr(SO3 H)--Met--Gly--Trp--Met--Asp--Phe--NH2] (HELM PEPTIDE1{[O=C(O)CCCC(=O)[*:2]].[O=C([C@H](Cc1ccc(OS(=O)(=O)O)cc1)N[*:1])[*:2]].M.G.W.M.D.F.[am]}$$$$V2.0) |  |  |  |  |  |  |  |  |  |  |  | 0.004 mg/kg | especially high inhibitory effect | 0.0879 mg/kg | 9.1 ± 0.9 | 7.9 ± 0.9 | 6.5 ± 0.7 | 
